Structures can show the parent of a compound that is named as a salt.

The values that follow come from patent publication US20240209005A1, “BICYCLIC HETEROARYL BORONATE DERIVATIVES AS ECTONUCLEOTIDE PYROPHOSPHATASE PHOSPHODIESTERASE 1 INHIBITORS” (RIBOSCIENCE LLC, priority 2021, published 2024).

The test has as its target T1, ENPP1 (Homo sapiens, UniProt P22413).
T1 sequence (P22413 1-925): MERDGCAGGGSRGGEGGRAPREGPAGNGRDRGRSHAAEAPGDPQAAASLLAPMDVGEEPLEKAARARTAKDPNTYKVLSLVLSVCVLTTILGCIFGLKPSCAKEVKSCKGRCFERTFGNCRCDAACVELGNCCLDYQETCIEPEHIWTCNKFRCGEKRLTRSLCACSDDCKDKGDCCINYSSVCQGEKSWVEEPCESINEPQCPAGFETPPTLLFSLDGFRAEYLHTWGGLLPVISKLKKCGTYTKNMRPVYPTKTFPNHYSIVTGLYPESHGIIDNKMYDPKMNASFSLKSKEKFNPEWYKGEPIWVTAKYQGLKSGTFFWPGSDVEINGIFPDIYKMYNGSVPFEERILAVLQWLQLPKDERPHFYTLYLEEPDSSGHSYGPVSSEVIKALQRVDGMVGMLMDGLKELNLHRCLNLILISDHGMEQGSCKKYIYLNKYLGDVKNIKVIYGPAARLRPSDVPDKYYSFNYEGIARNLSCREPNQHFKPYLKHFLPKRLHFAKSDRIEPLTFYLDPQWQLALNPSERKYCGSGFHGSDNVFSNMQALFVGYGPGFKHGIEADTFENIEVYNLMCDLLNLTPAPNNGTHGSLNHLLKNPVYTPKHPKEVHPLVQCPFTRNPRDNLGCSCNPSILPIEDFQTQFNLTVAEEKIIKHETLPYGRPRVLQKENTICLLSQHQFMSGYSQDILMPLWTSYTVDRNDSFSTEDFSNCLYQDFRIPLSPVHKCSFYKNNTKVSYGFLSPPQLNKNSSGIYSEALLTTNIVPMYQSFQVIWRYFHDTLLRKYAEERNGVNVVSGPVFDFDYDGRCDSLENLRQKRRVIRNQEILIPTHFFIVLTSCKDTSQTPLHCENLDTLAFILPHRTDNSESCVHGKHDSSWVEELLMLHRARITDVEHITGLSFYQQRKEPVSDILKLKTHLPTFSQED
Nature of the test: Measurement of pNP-TMP hydrolysis by ENPP1. The format is biochemical. The following applies: purified ENPP1, pNP-TMP substrate 500 μM, KM 232 μM; Ki calculated from IC50 by Cheng-Prusoff. The procedure: p-Nitrophenyl thymidine 5′-monophosphate (pNP-TMP) is a synthesized substrate for ENPP1. The ENPP1 enzyme activity assay with pNP-TMP substrate was conducted as follows:
Incubation of ENPP1 with compounds was set at 25° C. for 10 min. […] For each compound dilution, wells with assay buffer (50 mM Tris-HCl, pH8.8, 250 mM NaCl, 0.1 mg/ml BSA, 1% DMSO) only but no ENPP1 were included as controls for subtraction of test compound derived absorbance at 405 nm.
Absorbance at 405 nm was recorded immediately in kinetic mode by PerkinElmer 2300 Enspire multimode plate reader.
For each inhibitor, the specific ENPP1 activity was calculated using the following equation: ENPP1 activity (pmol/min/g)=Adjusted Vmax (OD405 nm/min) X conversion factor (pmol/OD405 nm)/amount of enzyme (g)
Adjusted Vmax=V0×(Km+(S))/(S).
V0=(OD405 nm with ENPP1−OD405 nm ENPP1 blank)/minutes. OD405 nm was plotted, with blank subtracted, against time (minutes), the initial linear rate is V0. […]
The slope is the conversion factor. The percent ENPP1 activity for each sample was calculated using the following equation:
% enzyme activity=sample enzyme activity/MAX Activity×100%.
To determine the IC50 for each compound, compound concentration values and percent enzyme activity values were inserted into GraphPad Prism (GraphPad Prism version 7.0 for Windows, GraphPad Software, La Jolla California USA, www.graphpad.com), and Prism's Transform analysis was used to convert the x-axis values (compound concentration) to logarithms. A sigmoidal variable slope nonlinear regression analysis was performed using the following equation: Y=Bottom+(Top−Bottom)/(1+10^((LogIC50−X)*HillSlope)).
In the case of `NC(=O)c1csc2c(NCc3ccc(B(O)O)cc3)ncnc12` [compound 39, 4-[([7-carbamoylthieno[3,2-d]pyrimidin-4-yl]amino)-methyl]phenylboronic acid], the Ki is less than 100 nM.

As to `Cn1ncc2nc(-c3ccncc3)nc(NCc3ccc(B(O)O)cc3)c21` [compound 32, 4-([[1-methyl-5-(pyridin-4-yl)pyrazolo[4,3-d]pyrimidin-7-yl]amino]methyl)phenylboronic acid], the Ki is less than 100 nM.

As to `O=C(NCCO)c1c[nH]c2c(NCc3ccc(B(O)O)cc3)ncnc12` [compound 13, 4-[([7-[(2-hydroxyethyl)carbamoyl]-5H-pyrrolo[3,2-d]-pyrimidin-4-yl]amino)methyl]phenylboronic acid], the Ki is less than 10000 nM.

On to `NC(=O)c1c[nH]c2c(NCc3ccc(B(O)O)cc3)ncnc12` [compound 16, 4-[([7-carbamoyl-5H-pyrrolo[3,2-d]pyrimidin-4-yl]amino)-methyl]phenylboronic acid], for which the Ki is less than 1000 nM.

As to `CC(=O)Nc1c[nH]c2c(NCc3ccc(B(O)O)cc3)ncnc12` [compound 7, 4-[([7-acetamido-5H-pyrrolo[3,2-d]pyrimidin-4-yl]amino)-methyl]phenylboronic acid], the inhibition constant Ki is less than 1000 nM.

For the compound `O=CNc1csc2c(NCc3ccc(B(O)O)cc3)ncnc12` [compound 25, 4-[([7-formamidothieno[3,2-d]pyrimidin-4-yl]amino)-methyl]phenylboronic acid], the Ki was less than 100 nM.

Consider `CC(C)c1nc(NCc2ccc(B(O)O)cc2)c2[nH]ncc2n1` [compound 27, 4-[([5-isopropyl-1H-pyrazolo[4,3-d]pyrimidin-7-yl]-amino)methyl]phenylboronic acid formic acid salt], for which the inhibition constant (Ki) is less than 1000 nM.

Regarding `O=C(Nc1csc2c(NCc3ccc(B(O)O)cc3)ncnc12)c1ccccc1` [compound 24, 4-[([7-benzamidothieno[3,2-d]pyrimidin-4-yl]amino)-methyl]phenylboronic acid], the inhibition constant (Ki) is more than 10000 nM.

Turning to `OB(O)c1ccc(CNc2ncnc3cn[nH]c23)cc1` [compound 9, 4-([1H-pyrazolo[4,3-d]pyrimidin-7-ylamino]methyl)-phenylboronic acid], the Ki is less than 100 nM.

As for `OB(O)c1ccc(CNc2nc(-c3ccccc3)nc3cn[nH]c23)cc1` [compound 28, 4-[([5-phenyl-1H-pyrazolo[4,3-d]pyrimidin-7-yl]amino)-methyl]phenylboronic acid], the Ki is less than 1000 nM.

For the compound `OB(O)c1ccc(CNc2ncnc3cc[nH]c23)cc1` [Cpd. 4, 4-([5H-pyrrolo[3,2-d]pyrimidin-4-ylamino]methyl)phenyl-boronic acid], the inhibitory constant (Ki) was less than 10000 nM.

Turning to `Cc1nc(NCc2ccc(B(O)O)cc2)c2c(cnn2C)n1` [compound 5, 4-[([1,5-dimethylpyrazolo[4,3-d]pyrimidin-7-yl]amino)-methyl]phenylboronic acid], the Ki was less than 1000 nM.

`CNC(=O)c1csc2c(NCc3ccc(B(O)O)cc3)ncnc12` [compound 12, 4-([[7-(methylcarbamoyl)thieno[3,2-d]pyrimidin-4-yl]-amino]methyl)phenylboronic acid]: the Ki was less than 100 nM.

On to `CC(C)c1nc(NCc2ccc(B(O)O)cc2)c2c(cnn2C)n1` [compound 6, 4-[([5-isopropyl-1-methylpyrazolo[4,3-d]pyrimidin-7-yl]-amino)methyl]phenylboronic acid], for which the Ki was less than 100 nM.

In the case of `CNC(=O)c1c[nH]c2c(NCc3ccc(B(O)O)cc3)ncnc12` [compound 17, 4-([[7-(methylcarbamoyl)-5H-pyrrolo[3,2-d]pyrimidin-4-yl]amino]methyl)phenylboronic acid; formic acid], the Ki is less than 100 nM.

Consider `N#Cc1c[nH]c2c(NCc3ccc(B(O)O)cc3)ncnc12` [compound 15, 4-[([7-cyano-5H-pyrrolo[3,2-d]pyrimidin-4-yl]amino)methyl]phenylboronic acid], for which the inhibition constant Ki was less than 100 nM.
